According to EP4603105A1, “PHARMACEUTICAL COMPOSITION CONTAINING CYCLIC COMPOUND HAVING SELECTIVE KRAS INHIBITORY EFFECT AGAINST HRAS AND NRAS” (CHUGAI SEIYAKU KABUSHIKI KAISHA, priority 2022, dated 2024):
Where a SMILES comes first, the peptide text is derived from it. Bridges are numbered along the chain shown (N, C = ends). [ ]: non-standard residue; d: D form. The star is where a group is joined. hPhe(3-Cl-4-CF3) = N[C@@H](CCc1ccc(C(F)(F)F)c(Cl)c1)C(=O)O; NPrPhe(4-CF3) = CCCN[C@@H](Cc1ccc(C(F)(F)F)cc1)C(=O)O; NMeAbu(4,4,4-F3) = CN[C@@H](CC(F)(F)F)C(=O)O; NMePhe(4-F) = CN[C@@H](Cc1ccc(F)cc1)C(=O)O; NMeGly(cPent) = CN[C@H](C(=O)O)C1CCCC1; Pro(4,4-F2) = O=C(O)[C@@H]1CC(F)(F)CN1; NMeD = CN[C@@H](CC(=O)O)C(=O)O; NMeL = CN[C@@H](CC(C)C)C(=O)O; Morpholide = C1CN(*)CCO1; NMeA = CN[C@@H](C)C(=O)O; Ac5c = NC1(C(=O)O)CCCC1; Aze = O=C(O)[C@@H]1CCN1; Ac4c = NC1(C(=O)O)CCC1; Sar = CNCC(=O)O

Assays:
[1] = test system: human lung cancer strain NCI-H441; type: cell-based
In short: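 Proliferation was scored by […] measured after the reagent was added to cultures kept at 37°C in 5% carbon dioxide.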

[2] = biological target: HRAS wild-type protein (Homo sapiens, UniProt P01112); test: Binding to HRAS by surface plasmon resonance (SPR), KD and KD ratio to KRAS
Sequence of HRAS wild-type protein (P01112 whole entry): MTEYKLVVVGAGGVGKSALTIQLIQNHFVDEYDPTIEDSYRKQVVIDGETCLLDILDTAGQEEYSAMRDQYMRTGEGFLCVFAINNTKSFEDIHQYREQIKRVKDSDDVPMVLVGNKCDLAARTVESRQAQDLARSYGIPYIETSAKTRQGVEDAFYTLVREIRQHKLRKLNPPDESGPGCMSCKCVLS
In short: (§1)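 Single-cycle kinetics on GDP-loaded biotin-Avi RAS captured to ~100–300 RU; 75 s ascending injections, 100 µL/min, 30°C. HBS pH 7.4 + 10 mM MgCl2/10 µM GDP/4% DMSO. 1:1 fit, KD.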

[3] = biological target: GDP-bound NRAS wild-type protein (Homo sapiens, UniProt P01111); test: Binding to NRAS by surface plasmon resonance (SPR), KD and KD ratio to KRAS
Sequence of GDP-bound NRAS wild-type protein (P01111 whole entry): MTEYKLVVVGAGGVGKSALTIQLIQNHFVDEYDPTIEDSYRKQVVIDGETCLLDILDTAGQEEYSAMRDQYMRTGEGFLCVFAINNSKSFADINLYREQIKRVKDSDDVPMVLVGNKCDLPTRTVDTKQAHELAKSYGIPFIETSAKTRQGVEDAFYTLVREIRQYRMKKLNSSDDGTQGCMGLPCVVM
In short: as §1

[4] = ratio of the KD value with respect to HRAS wild-type protein to the KD value with respect to KRAS
[5] = ratio of the KD value with respect to GDP-bound NRAS wild-type protein to the KD value with respect to KRAS
[6] = ratio of KD for HRAS wild-type protein to KD for KRAS
[7] = ratio of KD for GDP-bound NRAS wild-type protein to KD for KRAS
[8] = ratio of KD value for HRAS wild-type protein to KD value for KRAS (SPR)
[9] = ratio of KD value for GDP-bound NRAS wild-type protein to KD value for KRAS (SPR)

SMILES	IC50 [1]	HRAS /KRAS [2, 4]	NRAS /KRAS [3, 5]	HRAS /KRAS [2, 6]	NRAS /KRAS [3, 7]	HRAS /KRAS [2, 8]	NRAS /KRAS [3, 9]
CC[C@H](C)[C@@H]1NC(=O)[C@H](CC(C)C)N(C)C(=O)C[C@@H](C(=O)N2CCOCC2)N(C)C(=O)[C@H](C2CCCC2)N(C)C(=O)C2(CCCC2)NC(=O)[C@@H]2C[C@H](O)CN2C(=O)[C@H](CCc2cc(F)c(C(F)(F)F)c(F)c2)NC(=O)CN(C)C(=O)[C@H](Cc2ccc(C(F)(F)F)cc2)N2CCCC[C@@H](C2=O)N(C)C(=O)CN(C)C1=O [PP0556]	21 nM	B (a compound having 3 or more and less than 10 is denoted as B)	C (A compound having a KD ratio of 0.1 or more and less than 3 is denoted as C)				
CCCN1C(=O)[C@@H]2CCN2C(=O)CN(C)C(=O)[C@H]([C@@H](C)CC)NC(=O)[C@H](CC(C)C)N(C)C(=O)C[C@@H](C(=O)N2CCOCC2)N(C)C(=O)[C@H](C2CCCC2)N(C)C(=O)C2(CCC2)NC(=O)[C@@H]2CC(F)(F)CN2C(=O)[C@H](CCc2ccc(C(F)(F)F)c(Cl)c2)NC(=O)CN(C)C(=O)[C@@H]1Cc1ccc(C(F)(F)F)cc1 [PP0409] ([NMeL]I[Sar][Aze][NPrPhe(4-CF3)][Sar][hPhe(3-Cl-4-CF3)][Pro(4,4-F2)][Ac4c][NMeGly(cPent)][NMeD]-Morpholide; lactam N-11)	4.4 nM	C (A compound having a KD ratio of 0.1 or more and less than 3 is denoted as C)	C (A compound having a KD ratio of 0.1 or more and less than 3 is denoted as C)				
CC[C@H](C)[C@@H]1NC(=O)[C@H](CC(C)C)N(C)C(=O)C[C@@H](C(=O)N2CCOCC2)N(C)C(=O)[C@H](C2CCCC2)N(C)C(=O)C2(CCCC2)NC(=O)[C@@H]2CCCN2C(=O)[C@H](CCc2ccc(C(F)(F)F)c(Cl)c2)NC(=O)CN(C)C(=O)[C@H](Cc2ccc(F)cc2)N(C)C(=O)[C@@H]2CCN2C(=O)[C@H](C)N(C)C1=O [PP0217] ([NMeL]I[NMeA][Aze][NMePhe(4-F)][Sar][hPhe(3-Cl-4-CF3)]P[Ac5c][NMeGly(cPent)][NMeD]-Morpholide; lactam N-11)	18.1 nM			C (A compound having a KD ratio of 0.1 or more and less than 3 is denoted as C)	C (A compound having a KD ratio of 0.1 or more and less than 3 is denoted as C)		
CCO[C@@H]1C[C@H]2C(=O)NC3(CC(C)(C)C3)C(=O)N(C)[C@@H](C3CCCC3)C(=O)N(C)[C@H](C(=O)N(C)C)CC(=O)N(C)[C@@H](CC)C(=O)N[C@@H]([C@@H](C)CC)C(=O)N(C)CC(=O)N(C)[C@H]3C/C=C\CCN(C3=O)[C@@H](Cc3ccc(Cl)cc3F)C(=O)N(C)CC(=O)N[C@@H](CCc3cc(F)c(C(F)(F)F)c(F)c3)C(=O)N2C1 [PP2048]	3.6 nM	B (a compound having 3 or more and less than 10 is denoted as B)	A (a compound having 10 or more and less than 20 is denoted as A)				
CCO[C@@H]1C[C@H]2C(=O)NC3(CCC3)C(=O)N(C)[C@@H](C3CCCC3)C(=O)N(C)[C@H](C(=O)N(C)C)CC(=O)N(C)[C@@H](CC)C(=O)N[C@@H]([C@@H](C)CC)C(=O)N(C)CC(=O)N(C)[C@H]3CCCCN(C3=O)[C@@H](Cc3ccc(C(F)(F)F)cc3)C(=O)N(C)CC(=O)N[C@@H](CCc3ccc(C(F)(F)F)c(OC)c3)C(=O)N2C1 [PP0884]	6.2 nM			C (A compound having a KD ratio of 0.1 or more and less than 3 is denoted as C)	C (A compound having a KD ratio of 0.1 or more and less than 3 is denoted as C)		
CCO[C@@H]1C[C@H]2C(=O)NC3(CC(C)(C)C3)C(=O)N(C)[C@@H](CC3CCC3)C(=O)N(C)[C@H](C(=O)N(C)C)CC(=O)N(C)[C@@H](COC)C(=O)N[C@@H]([C@@H](C)CC)C(=O)N(C3CC3)CC(=O)N(C)[C@H]3C/C=C\CCN(C3=O)[C@@H](Cc3ccc(C(F)(F)F)cc3)C(=O)N(C)CC(=O)N[C@@H](CCc3cc(F)c(C(F)(F)F)c(F)c3)C(=O)N2C1 [PP2769]	133 nM			A (a compound having 10 or more and less than 20 is denoted as A)	AA (a compound having 20 or more is denoted as AA)		
CCO[C@@H]1C[C@H]2C(=O)NC3(CCC3)C(=O)N(C)[C@@H](C3CCCC3)C(=O)N(CCC3CCC3)[C@H](C(=O)N(C)C)CC(=O)N(C)[C@@H](CC)C(=O)N[C@@H]([C@@H](C)CC)C(=O)N(C)CC(=O)N(C)[C@H]3CCCCN(C3=O)[C@@H](Cc3ccc(C(F)(F)F)cc3)C(=O)N(C)CC(=O)N[C@@H](CCc3cc(F)c(C(F)(F)F)c(F)c3)C(=O)N2C1 [PP0645]	12 nM	B (a compound having 3 or more and less than 10 is denoted as B)	B (a compound having 3 or more and less than 10 is denoted as B)				
CCO[C@@H]1C[C@H]2C(=O)NC3(CCC3)C(=O)N(C)[C@@H](C3CCCC3)C(=O)N(C)[C@H](C(=O)N3CCOCC3)CC(=O)N(C)[C@@H](CC)C(=O)N[C@@H]([C@@H](C)CC)C(=O)N3CC[C@H]3C(=O)N(C)[C@H]3CC(C)=CCN(C3=O)[C@@H](Cc3ccc(C(F)(F)F)cc3)C(=O)N(C)CC(=O)N[C@@H](CCc3cc(F)c(C(F)(F)F)c(F)c3)C(=O)N2C1 [PP1042]	349 nM			C (A compound having a KD ratio of 0.1 or more and less than 3 is denoted as C)	C (A compound having a KD ratio of 0.1 or more and less than 3 is denoted as C)		
CCO[C@@H]1C[C@H]2C(=O)NC3(CCC3)C(=O)N(C)[C@@H](C3CCCC3)C(=O)N(C)[C@H](C(=O)N(C)C)CC(=O)N(C)[C@@H](CC(C)C)C(=O)N[C@@H]([C@@H](C)CC)C(=O)N(C)CC(=O)N(C)[C@H]3C/C=C\CCN(C3=O)[C@@H](Cc3ccc(F)cc3)C(=O)N(C)CC(=O)N[C@@H](CCc3cc(F)c(C(F)(F)F)c(F)c3)C(=O)N2C1 [PP1488]	23.2 nM					B (a compound having 3 or more and less than 10 is denoted as B)	A (a compound having 10 or more and less than 20 is denoted as A)
CC[C@H](C)[C@@H]1NC(=O)[C@H](CC(C)C)N(C)C(=O)C[C@@H](C(=O)N2CCOCC2)N(C)C(=O)[C@H](C2CCCC2)N(C)C(=O)C2(CCCC2)NC(=O)[C@@H]2CCCN2C(=O)[C@H](CCc2cc(F)c(C(F)(F)F)c(F)c2)NC(=O)CN(C)C(=O)[C@H](Cc2ccc(C(F)(F)F)cc2)N2CCCC[C@@H](C2=O)N(C)C(=O)CNC1=O [PP0542]	3.4 nM	B (a compound having 3 or more and less than 10 is denoted as B)	B (a compound having 3 or more and less than 10 is denoted as B)				
CCCN(C)C(=O)[C@@H]1CC(=O)N(C)[C@@H](CC(F)F)C(=O)N[C@@H]([C@@H](C)CC)C(=O)N(C)CC(=O)N(C)[C@H]2C/C=C\CCN(C2=O)[C@@H](Cc2ccc(C(F)(F)F)cc2)C(=O)N(C)CC(=O)N[C@@H](CCc2cc(F)c(C(F)(F)F)c(F)c2)C(=O)N2C[C@H](OCC)C[C@H]2C(=O)NC2(CCC2)C(=O)N(C)[C@@H](C2CCCC2)C(=O)N1C [PP1700]	3.6 nM					A (a compound having 10 or more and less than 20 is denoted as A)	A (a compound having 10 or more and less than 20 is denoted as A)
CCC[C@H]1C(=O)N[C@@H]([C@@H](C)CC)C(=O)N(C)CC(=O)N(C)[C@H]2C/C=C\CCN(C2=O)[C@@H](Cc2ccc(C(F)(F)F)cc2)C(=O)N(C)CC(=O)N[C@@H](CCc2ccc(CC)c(Cl)c2)C(=O)N2C[C@H](OCC)C[C@H]2C(=O)NC2(CC(C)(C)C2)C(=O)N(C)[C@@H](C2CCCC2)C(=O)N(C)[C@H](C(=O)N(C)C)CC(=O)N1C [PP2848]	28.9 nM			A (a compound having 10 or more and less than 20 is denoted as A)	A (a compound having 10 or more and less than 20 is denoted as A)		
CCCN1C(=O)CN(C)C(=O)[C@@H]2CCN2C(=O)[C@H]([C@@H](C)CC)NC(=O)[C@H](CC(C)C)N(C)C(=O)C[C@@H](C(=O)N(C)C)N(C)C(=O)[C@H](C2CCCC2)N(C)C(=O)C2(CCC2)NC(=O)[C@@H]2CCCN2C(=O)[C@H](CCc2ccc(C(F)(F)F)c(Cl)c2)NC(=O)CN(C)C(=O)[C@@H]1Cc1ccc(C(F)(F)F)cc1 [PP0430] ([NMeL]I[Aze][Sar][NPrPhe(4-CF3)][Sar][hPhe(3-Cl-4-CF3)]P[Ac4c][NMeGly(cPent)][NMeD]-NMe2; lactam N-11)	27.9 nM	B (a compound having 3 or more and less than 10 is denoted as B)	B (a compound having 3 or more and less than 10 is denoted as B)				
CCCN1C(=O)CN(C)C(=O)CN(C)C(=O)[C@H]([C@@H](C)CC)NC(=O)[C@H](CC(F)(F)F)N(C)C(=O)C[C@@H](C(=O)N2CCOCC2)N(C)C(=O)[C@H](C2CCCC2)N(C)C(=O)C2(CCCC2)NC(=O)[C@@H]2CC(F)(F)CN2C(=O)[C@H](CCc2ccc(C(F)(F)F)c(Cl)c2)NC(=O)CN(C)C(=O)[C@@H]1Cc1ccc(C(F)(F)F)cc1 [PP0199] ([NMeAbu(4,4,4-F3)]I[Sar][Sar][NPrPhe(4-CF3)][Sar][hPhe(3-Cl-4-CF3)][Pro(4,4-F2)][Ac5c][NMeGly(cPent)][NMeD]-Morpholide; lactam N-11)	3.5 nM			C (A compound having a KD ratio of 0.1 or more and less than 3 is denoted as C)	B (a compound having 3 or more and less than 10 is denoted as B)		
